From patent publication US10941158B2, “Pyrazole ACC inhibitors and uses thereof” (Gilead Apollo, LLC, priority 2015, dated 2021) come the findings set out here.

Values after ≈ are worked out from the molar mass of the structure shown. Like-named read-outs stand apart in the source and are kept apart here.

The subject of one assay is C. krusei ATCC 6258. The assay can be described thus: Anti-Fungal (Candida) Activity Assay, broth microtiter MIC. The conditions noted are these: Pichia kudriavzevii, read-out: MIC C. krusei ATCC 6258. The class given is cell-based. In short, it runs like this:
(§1)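 Strains plated from frozen stock onto Sabouraud dextrose agar, 35 °C, 24 h; colonies suspended directly in RPMI 1640/MOPS, density from standard curves; CLSI M27-A3 microdilution; 48 h read, visual vs growth control.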

The subject of the next assay is C. albicans ATCC 90028. The assay is described as above. As to conditions: read-out: MIC C. albicans ATCC 90028. The class given is cell-based. Put shortly: as §1
For assay [1], the system named is C. parapsilosis ATCC 22019. Described as above. The class given is cell-based. The conditions noted are these: Lodderomyces parapsilosis, read-out: MIC C. parapsilosis ATCC 22019. Put shortly: as §1
The test system of assay [2] is Phytophthora capsici (Pc). The assay can be described thus: Growth inhibition assay of fungal pathogens. The class given is cell-based. The conditions noted are these: for IC90: Phytophthora capsici, read-out: Concentration at 90% Inhibition Pc. In short, it runs like this:
(§2)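 Liquid-culture assay in which test compounds are applied at three final concentrations (50, 10, 2 ppm or 2, 0.4, 0.08 ppm). Inoculum levels follow 48 h growth curves for each fungus. Growth is monitored by OD600 and by eye, and the 48 h values give % inhibition against DMSO.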

The next assay relates to Botrtyis cinerea (Bc). Briefly: Growth inhibition assay of fungal pathogens. The class given is cell-based. As to conditions: 48 h, read-out: Concentration at 90% Inhibition Bc. In short, it runs like this:
(§3)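 Percent growth inhibition was derived from 48 h OD600 and visual scores relative to 2% DMSO, with blank background subtraction. Fungi were grown from spores in 17% V8 liquid medium, R. solani from 1.5 mm plugs in ¼ PDB, with compound at final 50/10/2 or 2/0.4/0.08 ppm.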

Assay [3] deals with Fusarium virguliforme (Fv). Briefly: Growth inhibition assay of fungal pathogens. As to conditions: 48 h. The class given is cell-based. Put shortly:
as §2

Another assay deals with Septoria tritici (St). The assay can be described thus: Growth inhibition assay of fungal pathogens. The class given is cell-based. The conditions noted are these: for IC90: Zymoseptoria tritici, read-out: Concentration at 90% Inhibition St. In short, it runs like this: as §2
A further assay deals with Rhizoctonia solani (Rs). The assay can be described thus: Growth inhibition assay of fungal pathogens. The class given is cell-based. The conditions noted are these: 48 h, read-out: Concentration at 90% Inhibition Rs. In short, it runs like this: as §3
For assay [4], the system named is Collectotrichum graminicola (Cg). Briefly: Growth inhibition assay of fungal pathogens. The class given is cell-based. The conditions noted are these: 48 h, read-out: Concentration at 90% Inhibition Cg. In short, it runs like this: as §2
Assay [5] concerns Fusarium moniliforme (Fm). Briefly: Growth inhibition assay of fungal pathogens. The class given is cell-based. As to conditions: for IC90: Fusarium verticillioides, 48 h, read-out: Concentration at 90% Inhibition Fm. In short, it runs like this: as §3
Another assay has as its system Diplodia maydis (Dm). Briefly: Growth inhibition assay of fungal pathogens. The conditions noted are these: Stenocarpella maydis, 48 h, read-out: Concentration at 90% Inhibition Dm. The class given is cell-based. In short, it runs like this: as §3
A further assay has as its target fungal (fACC2) ACC2 (UniProt Q00955). The conditions noted are these: read-out: fACC2 IC50; fungal ACC2, ADP-Glo.
In the next assay the target is human (hACC2) ACC2 (Homo sapiens, UniProt O00763). Briefly: In vitro Acetyl-CoA Carboxylase (ACC) inhibition assay (ADP-Glo), hACC2. The class given is biochemical. Here is the method: The detailed procedure is as follows. […] 10 μL ADP glo reagent was added. […] 20 μL kinase detection reagent was added.
Sequence of human (hACC2) ACC2 (O00763 whole entry): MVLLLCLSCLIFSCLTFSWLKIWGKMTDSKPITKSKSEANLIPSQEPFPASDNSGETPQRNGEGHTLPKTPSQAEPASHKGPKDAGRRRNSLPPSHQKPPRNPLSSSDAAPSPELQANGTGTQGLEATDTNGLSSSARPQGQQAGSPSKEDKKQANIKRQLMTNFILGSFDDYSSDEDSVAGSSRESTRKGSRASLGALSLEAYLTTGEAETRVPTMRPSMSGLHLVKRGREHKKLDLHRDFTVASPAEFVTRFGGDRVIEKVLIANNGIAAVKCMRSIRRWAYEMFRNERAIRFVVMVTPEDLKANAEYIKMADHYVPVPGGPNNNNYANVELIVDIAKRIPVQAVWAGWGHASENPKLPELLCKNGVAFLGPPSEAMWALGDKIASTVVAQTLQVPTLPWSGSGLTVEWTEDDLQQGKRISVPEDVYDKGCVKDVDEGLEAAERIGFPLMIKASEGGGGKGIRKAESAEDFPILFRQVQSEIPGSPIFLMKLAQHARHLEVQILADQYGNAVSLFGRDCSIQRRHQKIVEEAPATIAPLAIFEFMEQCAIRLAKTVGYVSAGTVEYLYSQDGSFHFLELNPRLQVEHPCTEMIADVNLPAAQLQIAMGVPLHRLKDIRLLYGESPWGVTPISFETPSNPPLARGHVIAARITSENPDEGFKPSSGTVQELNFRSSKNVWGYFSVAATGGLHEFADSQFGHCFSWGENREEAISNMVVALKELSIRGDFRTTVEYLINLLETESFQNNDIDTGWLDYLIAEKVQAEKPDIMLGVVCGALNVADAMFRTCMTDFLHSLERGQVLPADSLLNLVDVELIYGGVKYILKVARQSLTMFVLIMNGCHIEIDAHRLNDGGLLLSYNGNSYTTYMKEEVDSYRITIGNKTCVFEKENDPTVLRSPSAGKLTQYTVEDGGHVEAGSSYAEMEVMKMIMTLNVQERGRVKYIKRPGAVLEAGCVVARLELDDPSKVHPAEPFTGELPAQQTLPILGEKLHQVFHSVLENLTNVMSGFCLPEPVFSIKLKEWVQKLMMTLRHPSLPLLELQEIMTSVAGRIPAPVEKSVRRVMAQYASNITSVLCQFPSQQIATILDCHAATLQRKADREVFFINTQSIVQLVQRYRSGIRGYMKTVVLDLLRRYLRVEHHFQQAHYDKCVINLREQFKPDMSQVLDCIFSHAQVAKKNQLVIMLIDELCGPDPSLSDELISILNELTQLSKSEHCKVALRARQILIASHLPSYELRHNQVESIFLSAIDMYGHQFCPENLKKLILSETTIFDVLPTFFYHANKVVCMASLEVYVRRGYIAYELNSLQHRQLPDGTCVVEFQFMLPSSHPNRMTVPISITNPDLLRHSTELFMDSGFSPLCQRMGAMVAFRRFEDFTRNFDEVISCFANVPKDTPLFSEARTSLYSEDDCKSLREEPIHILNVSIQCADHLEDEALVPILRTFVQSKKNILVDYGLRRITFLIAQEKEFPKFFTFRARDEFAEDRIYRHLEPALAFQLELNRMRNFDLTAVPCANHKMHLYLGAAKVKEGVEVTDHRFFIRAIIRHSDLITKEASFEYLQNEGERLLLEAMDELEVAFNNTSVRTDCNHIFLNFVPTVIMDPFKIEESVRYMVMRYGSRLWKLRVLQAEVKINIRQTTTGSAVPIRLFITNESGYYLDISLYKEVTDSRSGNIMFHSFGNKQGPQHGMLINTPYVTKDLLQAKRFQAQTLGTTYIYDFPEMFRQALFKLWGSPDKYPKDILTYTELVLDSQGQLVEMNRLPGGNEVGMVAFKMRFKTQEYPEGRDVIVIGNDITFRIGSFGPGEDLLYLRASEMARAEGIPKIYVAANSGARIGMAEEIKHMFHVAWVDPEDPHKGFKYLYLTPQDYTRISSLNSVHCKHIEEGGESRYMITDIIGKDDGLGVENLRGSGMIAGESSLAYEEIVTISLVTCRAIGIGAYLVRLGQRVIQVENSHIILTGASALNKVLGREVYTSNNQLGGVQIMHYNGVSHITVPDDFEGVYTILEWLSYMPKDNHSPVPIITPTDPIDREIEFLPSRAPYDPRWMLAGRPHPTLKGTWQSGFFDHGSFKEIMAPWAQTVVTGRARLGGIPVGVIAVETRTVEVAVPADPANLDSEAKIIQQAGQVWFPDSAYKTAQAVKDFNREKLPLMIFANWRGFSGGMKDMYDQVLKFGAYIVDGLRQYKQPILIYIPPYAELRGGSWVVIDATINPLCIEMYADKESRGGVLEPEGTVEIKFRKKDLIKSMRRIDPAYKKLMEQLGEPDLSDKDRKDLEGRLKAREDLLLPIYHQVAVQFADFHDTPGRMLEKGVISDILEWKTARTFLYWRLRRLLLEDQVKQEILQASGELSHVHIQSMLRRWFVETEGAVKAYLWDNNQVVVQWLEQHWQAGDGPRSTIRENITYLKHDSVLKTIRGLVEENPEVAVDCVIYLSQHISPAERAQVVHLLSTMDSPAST
“NA” stands for “not assayed.”
A general note: ADP-Glo first removes unused ATP, then detects ADP through luciferase.

[6] abbreviates: ATCC6258, 3 replicates, MIC recorded at 48 h.
[7] abbreviates: ATCC90028, 3 replicates, MIC recorded at 48 h.
Setting [8] is: ATCC22019, 3 replicates, MIC recorded at 48 h.
Where [9] appears, read: Table 4a, 48 hours, read-out: Concentration at 90% Inhibition Fv.
The mark [10] stands for this setting: Table 4b, 48 hours, read-out: Concentration at 90% Inhibition Fv.

Sequence of fungal (fACC2) ACC2 (Q00955 whole entry): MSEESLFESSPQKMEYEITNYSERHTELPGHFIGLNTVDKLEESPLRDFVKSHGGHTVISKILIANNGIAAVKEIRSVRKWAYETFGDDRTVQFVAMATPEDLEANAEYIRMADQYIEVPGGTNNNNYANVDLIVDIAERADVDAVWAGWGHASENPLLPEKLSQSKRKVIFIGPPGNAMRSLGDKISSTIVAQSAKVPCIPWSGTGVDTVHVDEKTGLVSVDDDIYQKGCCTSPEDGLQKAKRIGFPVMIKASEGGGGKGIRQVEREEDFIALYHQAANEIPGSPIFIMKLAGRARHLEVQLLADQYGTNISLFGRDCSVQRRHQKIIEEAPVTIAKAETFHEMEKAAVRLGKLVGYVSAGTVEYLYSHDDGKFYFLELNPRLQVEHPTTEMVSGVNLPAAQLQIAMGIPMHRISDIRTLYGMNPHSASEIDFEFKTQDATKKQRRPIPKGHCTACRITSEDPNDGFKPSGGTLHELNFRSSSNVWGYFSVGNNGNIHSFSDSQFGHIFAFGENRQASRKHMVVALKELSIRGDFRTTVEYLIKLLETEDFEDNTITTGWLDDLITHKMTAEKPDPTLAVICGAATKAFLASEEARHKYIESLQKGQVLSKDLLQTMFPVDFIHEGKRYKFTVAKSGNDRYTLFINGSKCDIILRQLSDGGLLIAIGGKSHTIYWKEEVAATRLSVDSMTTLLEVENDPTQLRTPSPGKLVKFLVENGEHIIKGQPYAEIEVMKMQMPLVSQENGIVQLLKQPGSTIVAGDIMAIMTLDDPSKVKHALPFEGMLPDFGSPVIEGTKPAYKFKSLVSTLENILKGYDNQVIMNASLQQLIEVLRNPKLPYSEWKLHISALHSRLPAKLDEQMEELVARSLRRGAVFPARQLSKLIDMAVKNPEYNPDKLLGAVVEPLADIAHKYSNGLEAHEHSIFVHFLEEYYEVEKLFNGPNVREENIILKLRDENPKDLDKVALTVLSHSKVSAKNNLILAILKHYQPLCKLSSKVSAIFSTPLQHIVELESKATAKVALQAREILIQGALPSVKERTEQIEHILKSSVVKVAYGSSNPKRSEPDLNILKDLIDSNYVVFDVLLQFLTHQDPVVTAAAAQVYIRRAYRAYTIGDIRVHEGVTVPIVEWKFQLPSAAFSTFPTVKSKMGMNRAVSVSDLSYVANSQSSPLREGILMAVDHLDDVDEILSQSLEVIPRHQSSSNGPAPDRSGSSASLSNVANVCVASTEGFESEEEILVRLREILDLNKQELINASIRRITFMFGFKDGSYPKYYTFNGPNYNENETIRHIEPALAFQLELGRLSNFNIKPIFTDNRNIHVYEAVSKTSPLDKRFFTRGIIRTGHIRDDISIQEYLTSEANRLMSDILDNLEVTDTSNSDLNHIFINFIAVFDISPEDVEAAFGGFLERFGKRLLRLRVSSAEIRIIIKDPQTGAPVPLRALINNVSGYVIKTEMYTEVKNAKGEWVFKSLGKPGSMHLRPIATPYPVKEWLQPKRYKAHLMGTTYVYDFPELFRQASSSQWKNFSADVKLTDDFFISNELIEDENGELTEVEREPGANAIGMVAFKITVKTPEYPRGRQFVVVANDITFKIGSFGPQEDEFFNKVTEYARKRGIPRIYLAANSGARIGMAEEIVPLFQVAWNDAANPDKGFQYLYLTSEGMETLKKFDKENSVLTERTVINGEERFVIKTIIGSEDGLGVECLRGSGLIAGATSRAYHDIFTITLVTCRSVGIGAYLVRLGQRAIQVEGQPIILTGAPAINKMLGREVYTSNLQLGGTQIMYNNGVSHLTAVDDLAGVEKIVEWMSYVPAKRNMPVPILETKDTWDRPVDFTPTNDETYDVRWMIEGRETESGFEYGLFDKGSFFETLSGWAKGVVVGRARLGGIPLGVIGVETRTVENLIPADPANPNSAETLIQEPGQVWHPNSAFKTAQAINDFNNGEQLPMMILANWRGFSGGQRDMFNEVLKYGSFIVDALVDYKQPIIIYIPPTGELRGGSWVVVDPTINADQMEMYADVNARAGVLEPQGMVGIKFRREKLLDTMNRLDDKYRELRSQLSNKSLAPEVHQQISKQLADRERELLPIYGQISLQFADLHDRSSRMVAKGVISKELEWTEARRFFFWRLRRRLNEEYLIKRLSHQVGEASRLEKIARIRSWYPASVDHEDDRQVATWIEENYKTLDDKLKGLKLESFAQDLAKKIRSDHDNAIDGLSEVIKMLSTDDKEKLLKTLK

Consider `COc1ccccc1[C@H](Cn1c(=O)n(C(C)(C)C(=O)N2CCCC2)c(=O)c2c(C)c(-n3cccn3)sc21)OC(C)C` [Compound I-18, (R)-1-(2-isopropoxy-2-(2-methoxyphenyl)ethyl)-5-methyl-3-(2-methyl-1-oxo-2-(pyrrolidin-1-yl)propan-2-yl)-6-(H-pyrazol-1-yl)thieno[2,3-d]pyrimidine-2,4(1H,3H)-dione], for which the minimum inhibitory concentration (MIC) with C. krusei ATCC 6258 (setting [6]) lay within 2.1 to 4 µg/mL (≈ 3.62 to 6.9 µM); with C. albicans ATCC 90028 (setting [7]), 1.1 to 2 µg/mL (≈ 1.9 to 3.45 µM); in [1] (setting [8]), 2.1 to 4 µg/mL (≈ 3.62 to 6.9 µM). The IC90 in assay [2] (Table 4a, 48 hours) is greater than 50 µg/mL; with Botrtyis cinerea (Bc) (Table 4a), 2 µg/mL (≈ 3.45 µM); in the assay with Botrtyis cinerea (Bc) (Table 4b), 2 µg/mL (≈ 3.45 µM); in assay [3] (setting [9]) it was 0.4 µg/mL (≈ 0.69 µM); in assay [3] (setting [10]) it was 0.4 µg/mL (≈ 0.69 µM); with Septoria tritici (St) (Table 4a, 48 hours) it was greater than 50 µg/mL. Besides, the IC90 amounted to 0.4 µg/mL (≈ 0.69 µM) with Rhizoctonia solani (Rs) (Table 4a); 0.4 µg/mL (≈ 0.69 µM) in the assay with Rhizoctonia solani (Rs) (Table 4b); 2 µg/mL (≈ 3.45 µM) in assay [4] (Table 4a); 2 µg/mL (≈ 3.45 µM) in assay [4] (Table 4b); 0.08 µg/mL (≈ 0.138 µM) in assay [5] (Table 4a, 48 hours); 0.08 µg/mL (≈ 0.138 µM) in assay [5] (Table 4b, 48 hours). Further, the IC90 in the assay on Diplodia maydis (Dm) (Table 4a) and in the assay with Diplodia maydis (Dm) (Table 4b) was 2 µg/mL (≈ 3.45 µM) each time. Moreover, the “Concentration at 90% Inhibition Pc” value in assay [2] (Table 4b, 48 hours) is on record as “D (“D” provided a compound concentration of >50 ppm at 90% inhibition of fungal pathogens)”. The “Concentration at 90% Inhibition St” value in the assay on Septoria tritici (St) (Table 4b, 48 hours) was “D (“D” provided a compound concentration of >50 ppm at 90% inhibition of fungal pathogens)”. The IC50 at fungal (fACC2) ACC2 was in the range of 0.6 to 3 nM; on human (hACC2) ACC2 it was 3 to 10 nM.

As for `COc1ccc(F)cc1[C@H](Cn1c(=O)n(C(C)(C)C(=O)N2CCCC2)c(=O)c2c(C)c(-n3cccn3)sc21)OC(C)C` [Compound I-24, (R)-1-(2-(5-fluoro-2-methoxyphenyl)-2-isopropoxyethyl)-5-methyl-3-(2-methyl-1-oxo-1-(pyrrolidin-1-yl)propan-2-yl)-6-(1H-pyrazol-1-yl)thieno[2,3-d]pyrimidine-2,4(1H,3H)-dione], the MIC with C. krusei ATCC 6258 (setting [6]) is 2.1 to 4 µg/mL (≈ 3.51 to 6.69 µM); in the assay with C. albicans ATCC 90028 (setting [7]) it was greater than 4.1 µg/mL; in [1] (setting [8]), greater than 4.1 µg/mL. Moreover, the IC90 in assay [2] (Table 4a, 48 hours) is greater than 50 µg/mL; with Botrtyis cinerea (Bc) (Table 4a), 0.4 µg/mL (≈ 0.669 µM); in the assay with Botrtyis cinerea (Bc) (Table 4b), 0.4 µg/mL (≈ 0.669 µM); in [3] (setting [9]), 0.4 µg/mL (≈ 0.669 µM); in assay [3] (setting [10]), 0.4 µg/mL (≈ 0.669 µM); in the assay on Septoria tritici (St) (Table 4a, 48 hours) it was greater than 50 µg/mL. For the same molecule, the IC90 in the assay with Rhizoctonia solani (Rs) (Table 4a) was found to be 0.4 µg/mL (≈ 0.669 µM); with Rhizoctonia solani (Rs) (Table 4b), 0.4 µg/mL (≈ 0.669 µM); in assay [4] (Table 4a) it was 0.4 µg/mL (≈ 0.669 µM); in assay [4] (Table 4b) it was 0.4 µg/mL (≈ 0.669 µM); in assay [5] (Table 4a, 48 hours), 0.08 µg/mL (≈ 0.134 µM); in the assay with Diplodia maydis (Dm) (Table 4a), 2 µg/mL (≈ 3.35 µM). Further, the IC90 in the assay with Diplodia maydis (Dm) (Table 4b) is 2 µg/mL (≈ 3.35 µM). For the same molecule, the “Concentration at 90% Inhibition Pc” value in assay [2] (Table 4b, 48 hours) is recorded as “D (“D” provided a compound concentration of >50 ppm at 90% inhibition of fungal pathogens)”. Moreover, the “Concentration at 90% Inhibition St” value with Septoria tritici (St) (Table 4b, 48 hours) is “D (“D” provided a compound concentration of >50 ppm at 90% inhibition of fungal pathogens)”. Besides, the “Concentration at 90% Inhibition Fm” value in assay [5] (Table 4b, 48 hours) was “A A”. In addition, the results for the IC50 on fungal (fACC2) ACC2 and at human (hACC2) ACC2 were 0.6 to 3 nM and 3 to 10 nM, respectively.

Take `COc1ccc(F)cc1[C@H](Cn1c(=O)n(C(C)(C)C(=O)NC(C)C)c(=O)c2c(C)c(-n3cccn3)sc21)OC1CCC(=O)CC1` [Compound I-26, (R)-2-(1-(2-(5-fluoro-2-methoxyphenyl)-2-((4-oxocyclo-hexyl)oxy)ethyl)-5-methyl-2,4-dioxo-6-(1H-pyrazol-1-yl)-1,4-dihydro-thieno[2,3-d]pyrimidin-3(2H)-yl)-N-isopropyl-2-methylpropanamide]: the MIC in the assay with C. krusei ATCC 6258 (ATCC6258, 48 h) fell in the range of 0.25 to 1 µg/mL (≈ 0.391 to 1.56 µM); with C. albicans ATCC 90028 (ATCC90028, 48 h), 1.1 to 2 µg/mL (≈ 1.72 to 3.13 µM); in assay [1] (ATCC22019, 48 h) it was 1.1 to 2 µg/mL (≈ 1.72 to 3.13 µM). Further, the IC90 in [2] (48 h, Table 4a) is greater than 50 µg/mL; in assay [2] (48 h, Table 4b), greater than 50 µg/mL; with Botrtyis cinerea (Bc) (Table 4a) it was 0.4 µg/mL (≈ 0.625 µM); with Botrtyis cinerea (Bc) (Table 4b), 0.4 µg/mL (≈ 0.625 µM); in assay [3] (read-out: Concentration at 90% Inhibition Fv, Table 4a, 48 hours), 2 µg/mL (≈ 3.13 µM); in assay [3] (read-out: Concentration at 90% Inhibition Fv, Table 4b, 48 hours), 2 µg/mL (≈ 3.13 µM). In addition, the IC90 is greater than 50 µg/mL with Septoria tritici (St) (48 h, Table 4a); greater than 50 µg/mL in the assay with Septoria tritici (St) (48 h, Table 4b); 2 µg/mL (≈ 3.13 µM) in the assay on Rhizoctonia solani (Rs) (Table 4a); 2 µg/mL (≈ 3.13 µM) in the assay with Rhizoctonia solani (Rs) (Table 4b); greater than 50 µg/mL in assay [4] (Table 4a); 10 µg/mL (≈ 15.6 µM) in assay [4] (Table 4b). Further, the IC90 amounted to 0.08 µg/mL (≈ 0.125 µM) in assay [5], 2 µg/mL (≈ 3.13 µM) with Diplodia maydis (Dm) (Table 4a) and 2 µg/mL (≈ 3.13 µM) in the assay with Diplodia maydis (Dm) (Table 4b). In [5] (Table 4a, 48 hours), the “Concentration at 90% Inhibition Fm” value is listed as “A A”. The results for the IC50 at fungal (fACC2) ACC2 and on human (hACC2) ACC2 were 0.6 to 3 nM and 3 to 10 nM, respectively.

In general, MIC refers to the least concentration at which growth counts as inhibited. A word on the IC50: it is the concentration that gives 50% inhibition.
